Results: patent US7902361B2, “Pyrimidin-4-yl-3, 4-thione compounds and their use in therapy” (Cyclacel Limited, priority 2003, dated 2011)
Where two headings read alike, the source gives them in different places.

Legend:
[1] = Blood levels of test compounds in ZDF fa/fa rats; format: in vivo, rat; details: 30 mg/kg per os twice; for concentration at 30 min / concentration at 60 min: male, rat, whole blood, oral; for concentration at 30 min / concentration at 60 min / Average Blood levels: ZDF fa/fa rats; for oral bioavailability (blood levels at 30 and 60 min after the glucose load): male ZDF fa/fa rats
Experimental: The ability of example compounds of the present invention to improve glucose metabolism was tested in 12-13 week old male ZDF fa/fa rats. The test animals (10-15 mmol/L fasting glucose level) were dosed twice at 30 mg/kg and the glucose challenge was given at time 0. […] Most of these blood levels were below the EC50 values determined in cellular assays.
12-13 weeks old male ZDF fa/fa rats were used to study the effect of example compounds on oral glucose tolerance. […] Body weight was recorded three times per week. Test compounds were dissolve in a formulation of 10% DMSO, 5% Tween, 5% Span 20, 30% PEG 400 and 50% water (v/v) to provide final solutions at 5 mg/mL concentration. Each experimental group contained 7 animals. After an 16 h overnight fast the test compounds were administered at 30 mg/kg per os twice (at −270 min and −30 min) before the oral glucose tolerance test was commenced (2 g glucose/kg per os as a 40% solution introduced via feeding tube). A control group was dosed in a similar manner with the vehicle only. Blood sampling for blood glucose measurement (20 μL blood) was performed at −270, 0, 15, 30, 60, 90, 120 and 180 min. Mixed venous blood was collected from the tail vein into 20-μL glass capillaries, which were placed in a standard tube filled with 1 mL solution for hemolysis. Glucose levels were measured using the glucose oxidase procedure (Super G Glukosemessgeraet; Dr Mueller Geraetebau, Freital, Germany). In addition, 50 μL blood samples were taken at 30 and 60 min after the glucose dose, placed in heparinized tubes, which were then frozen immediately in liquid nitrogen. The bioanalytical method used employed isocratic elution liquid chromatography—tandem mass spectrometry in electrospray positive ion multiple reaction monitoring mode.

[2] = molecular target: T1, DYRK1A (Homo sapiens, UniProt Q13627); assay: DYRK1A in vitro kinase assay; format: biochemical; details: recombinant human DYRK1A, 100 μM ATP
T1 construct: purchased Upstate
Description: Dual specificity tyrosine phosphorylation regulated kinase 1A (DYRK1A) has been proposed, amongst other functions, to play a role in the regulation of glycogen metabolism in a way similar to GSK3. Some of the example compounds of the present invention were screened against recombinant human DYRK1A in vitro and the determined IC50 values are shown in Table 9. According to our current knowledge inhibition of DYRK1A will have additional positive effect on stimulation of glycogen synthase.
A 10-point titration was set up to determine the IC50 values of selected example compounds against DYRK1A. Assays were performed using 96-well microtiter plates and a final volume of 25 μL/well. Each assay contained 2.3 milliunits of DYRK1A (Upstate), 50 μM Woodtide peptide ([…], Upstate), 20 mM Tris HCl pH 8.0, 10 mM DTT, 5 mM EGTA, 1 mM NaVO3, 31 mM β-glycerophosphate, 15 mM MgCl2 supplemented with 100 μM ATP and 0.5 μCi of [γ-^32P] ATP plus or minus inhibitor in 2% DMSO. Assays were carried out for 60 minutes at 30° C. before stopping the reaction by the addition of an equal volume of 75 mM aqueous phosphoric acid. Samples were then spotted onto a p81 filterplate (Whatman) and a vacuum applied. Wells were washed 3 times with 200 μL of dilute aqueous phosphoric acid before the addition of 50 μL Microscint 40 per well. Incorporation of radioactivity was determined on a Topcount microplate scintillation counter (Packard).

[3] = molecular target: CDK9/cyclin T1 (Homo sapiens, UniProt P50750); assay: Kinase assay CDK9/cyclin T1; format: biochemical; details: Ki calculated (Cheng-Prusoff) from experimentally determined IC50 and Km,ATP; read-out: Kinase Inhibition Ki CDK9 - cyclin T1
In short: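 Radiometric filter assays used recombinant kinases or complexes (2-4 μg) with appropriate polypeptide substrates in pH 7.4 β-glycerophosphate/MOPS buffer. Reactions were started with 15 mM MgCl2 and 100 μM ATP containing [γ-32P]-ATP and run at 30° C. Phosphate incorporated into substrate was counted by scintillation after washing.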

[4] = tested on: glycogen synthase; assay: Glycogen synthase activation in HEK293 cells; format: cell-based; details: for Max FI (% to LiCl): maximum fold induction normalised to 40 mM LiCl
Experimental: HEK293 cells, mouse adipocytes or rat myotubes were treated in 10-cm Petri dishes with different concentrations of GSK3 inhibitor example compounds for 90 minutes. At the end of the treatment period the cells were washed and scraped in ice cold PBS buffer supplemented with 20 mM NaF. The cells were pelleted by centrifugation and lysed in 300 μL buffer (50 mM.HEPES pH 7.5, 10 mM EDTA, 100 mM NaF, 5 mM DTT, protease inhibitor cocktail (Sigma)). After incubation for 30 min on ice the samples were cleared by centrifugation. The activity of glycogen synthase was determined in the soluble fraction at two different concentrations of […]—low (0.1 mM) and high (10 mM). The reaction was carried out for 30 min (buffer: 50 mM Tris pH 7.8, 20 mM EDTA, 25 mM NaF, 5 mM DTT). The reaction mixture (total volume of 90 μL) contained 1% glycogen, 0.3 mM UDP-glucose and 0.06 μCi ^14C-UDP-glucose. Reaction was stopped by transfer of 70 μL to a GFC 96-well filter plate, containing 140 μL 100% ethanol and the glycogen was allowed to precipitate for 1 h at 4° C. The wells were washed 2 times with 200 μL 66% ethanol and than allowed to dry. Subsequently, 100 μL of scintillation liquid was added, and plates were sealed and counted in a Packard Topcounter. Glycogen synthase activation was calculated as the ratio between the incorporation of labelled ^14C-UDP-glucose in glycogen at low and high concentration of […] (fractional velocity).
The ability of GSK3 inhibitors to activate glycogen synthase was determined in HEK293 cells, mouse adipocytes and rat myotubed. The compounds tested activated glycogen synthase in all three cellular systems with EC50 values in the sub-micromolar to low micromolar concentration range. Most of them exceeded the stimulation induced by 40 mM LiCl (the highest compound concentration used in the assay was 20 μM).

CDK9/cyclin T1, sequence (P50750 whole entry, species assumed): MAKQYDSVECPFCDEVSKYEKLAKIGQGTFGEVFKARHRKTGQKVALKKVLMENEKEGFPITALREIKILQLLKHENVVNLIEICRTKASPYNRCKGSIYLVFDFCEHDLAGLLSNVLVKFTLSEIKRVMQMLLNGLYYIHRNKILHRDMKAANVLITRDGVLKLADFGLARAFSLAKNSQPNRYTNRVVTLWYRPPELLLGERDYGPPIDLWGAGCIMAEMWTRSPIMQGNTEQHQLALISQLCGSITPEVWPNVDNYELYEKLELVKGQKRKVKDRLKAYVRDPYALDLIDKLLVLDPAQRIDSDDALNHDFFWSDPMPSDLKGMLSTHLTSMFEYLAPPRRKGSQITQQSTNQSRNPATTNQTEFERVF
CDK9/cyclin T1, sequence (O60563 whole entry partner, species assumed): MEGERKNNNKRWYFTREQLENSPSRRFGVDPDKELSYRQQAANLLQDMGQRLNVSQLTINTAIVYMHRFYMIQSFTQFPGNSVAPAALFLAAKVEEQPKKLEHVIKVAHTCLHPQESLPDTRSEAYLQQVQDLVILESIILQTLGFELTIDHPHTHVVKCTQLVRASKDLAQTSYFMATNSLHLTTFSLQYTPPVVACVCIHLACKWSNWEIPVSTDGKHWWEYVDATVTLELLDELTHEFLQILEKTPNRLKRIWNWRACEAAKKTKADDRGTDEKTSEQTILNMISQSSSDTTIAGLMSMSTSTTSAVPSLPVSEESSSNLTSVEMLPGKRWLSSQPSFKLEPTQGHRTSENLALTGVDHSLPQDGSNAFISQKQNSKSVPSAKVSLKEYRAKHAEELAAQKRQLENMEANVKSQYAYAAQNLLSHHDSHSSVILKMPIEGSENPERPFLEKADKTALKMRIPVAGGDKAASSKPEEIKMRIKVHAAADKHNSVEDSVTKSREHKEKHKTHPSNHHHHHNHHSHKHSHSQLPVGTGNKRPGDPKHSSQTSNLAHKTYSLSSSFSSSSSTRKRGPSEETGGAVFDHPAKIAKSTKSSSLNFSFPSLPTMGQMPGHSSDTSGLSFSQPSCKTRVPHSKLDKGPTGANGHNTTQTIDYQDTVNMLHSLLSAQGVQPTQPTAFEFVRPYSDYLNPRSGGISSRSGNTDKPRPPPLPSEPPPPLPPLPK

CCNS(=O)(=O)c1cccc(Nc2nccc(-c3sc(=O)n(C)c3C)n2)c1 [Compound 62, 3-[4-(3,4-Dimethyl-2-oxo-2,3-dihydro-thiazol-5-yl)-pyrimidin-2-ylamino]-N-ethyl-benzenesulfonamide]
concentration at 30 min ([1]; time 30 min): 27.6 ng/mL
concentration at 60 min ([1]; time 60 min): 29.7 ng/mL
IC50 [2]: 51 nM
Ki [3]: 4.8 nM
EC50 ([4]; Homo sapiens): 684 ± 133 nM
Max FI (% to LiCl) [4]: 117 % to LiCl

CC(=O)Nc1cc(Nc2nccc(-c3sc(=O)n(C)c3C)n2)cc(C(F)(F)F)c1 [Compound 64, N-{3-[4-(3,4-Dimethyl-2-oxo-2,3-dihydro-thiazol-5-yl)-pyrimidin-2-ylamino]-5-trifluoromethyl-phenyl}-acetamide]
oral bioavailability (blood levels at 30 and 60 min after the glucose load) [1]: some oral bioavailability
concentration at 30 min ([1]; time 30 min): 248 ng/mL
concentration at 60 min ([1]; time 60 min): 268 ng/mL
IC50 [2]: 77 nM
Ki [3]: 5.7 nM
EC50 ([4]; Homo sapiens): 49 ± 70 nM
Max FI (% to LiCl) [4]: 107 % to LiCl

COCCNS(=O)(=O)c1cccc(Nc2nccc(-c3sc(=O)n(C)c3C)n2)c1 [Compound 67, 3-[4-(3,4-Dimethyl-2-oxo-2,3-dihydro-thiazol-5-yl)-pyrimidin-2-ylamino]-N-(2-methoxy-ethyl)-benzenesulfonamide]
oral bioavailability (blood levels at 30 and 60 min after the glucose load) [1]: some oral bioavailability
concentration at 30 min ([1]; time 30 min): 350 ng/mL
concentration at 60 min ([1]; time 60 min): 271 ng/mL
IC50 [2]: 19 nM
Ki [3]: 4.8 nM
EC50 ([4]; Homo sapiens): 3720 ± 2500 nM
Max FI (% to LiCl) [4]: 85 % to LiCl

Cc1c(-c2ccnc(Nc3cc(Br)cc(C(F)(F)F)c3)n2)sc(=O)n1C [Compound 68, 5-[2-(3-Bromo-5-trifluoromethyl-phenylamino)-pyrimidin-4-yl]-3,4-dimethyl-3H-thiazol-2-one]
oral bioavailability (blood levels at 30 and 60 min after the glucose load) [1]: some oral bioavailability
concentration at 30 min ([1]; time 30 min): 115 ng/mL
concentration at 60 min ([1]; time 60 min): 70.1 ng/mL
IC50 [2]: 73 nM
Ki [3]: 140 nM
EC50 ([4]; Homo sapiens): 8340 ± 1880 nM
Max FI (% to LiCl) [4]: 96 % to LiCl

Cc1c(-c2ccnc(Nc3cccc(S(=O)(=O)NCCO)c3)n2)sc(=O)n1C [Compound 75, 3-[4-(3,4-Dimethyl-2-oxo-2,3-dihydro-thiazol-5-yl)-pyrimidin-2-ylamino]-N-(2-hydroxy-ethyl)-benzenesulfonamide]
IC50 [2]: 26 nM
Ki [3]: 9.5 nM
EC50 ([4]; Homo sapiens): 5170 ± 2200 nM
Max FI (% to LiCl) [4]: 108 % to LiCl

CNc1cc(Nc2nccc(-c3sc(=O)n(C)c3C)n2)cc(C(F)(F)F)c1 [Compound 76, 3,4-Dimethyl-5-[2-(3-methylamino-5-trifluoromethyl-phenylamino)-pyrimidin-4-yl]-3H-thiazol-2-one]
Average Blood levels ([1]; time 30 min): 43.0 ng/mL
Average Blood levels ([1]; time 60 min): 48.1 ng/mL
IC50 [2]: 148 nM
Ki [3]: 21 nM
EC50 [4]: 444 ± 178 nM
Max FI (% to LiCl) [4]: 88 % to LiCl
